# Experimental data from US20180015080A1, “COMPOSITIONS AND METHODS FOR TREATMENT IN PARKINSON'S DISEASE PATIENTS” (priority 2013, published 2018).
# Key:
# [1] = cited from earlier work
# PD patients with LIDS = conditions: patients with idiopathic PD and LIDS, one oral dosage per day, 4 mg/day escalated to 24 mg/day
# Text: Patients with idiopathic PD and LIDS are enrolled in a clinical study. […] The patient population in this study is typical of those patients with LIDS. Upon randomization of patients for receiving study agent or placebo, there are no statistically significant differences in baseline parameters between the 2 groups.
# The study consists of 3 phases: a treatment period, a drug taper period, and a follow-up period. Subjects are randomly assigned to receive either a nicotine salt or placebo (pbo). Treatment is with one oral dosage per day containing a nicotine salt or placebo. […]
# Safety is assessed by incidences of adverse experiences (AE), clinical laboratory tests, serum cotinine, ECG and vital signs. Impulsive symptoms are assessed using the Jay Modified Minnesota Impulsive Disorders Interview (JayMidi). Withdrawal symptoms are evaluated using the Minnesota Nicotine Withdrawal Scale (MNWS-R).
# Efficacy is assessed using the UPDRS (total of Parts II+III+IV), sum of Q32+Q33, Unified Dyskiensia Rating Scale (UDysRS) total scores and subscores, Lang-Fahn Dyskinesia Acitivties of Daily Living Scale (LF-ADL), CGI-C and PGI-C scales, and responder analyses (subjects with >25% improvement from baseline) on UDysRS total score and LF-ADL, and % subjects with any improvement on PGI-C and CGI-C. […]
compound,measurement,setting,value
"N[C@@H](Cc1ccc(O)c(O)c1)C(=O)O [Levodopa, L-3,4-dihydroxyphenylalanine (S)-2-amino-3-(3,4-dihydroxyphenyl)propanoic acid]",solubility in water,[1],slightly soluble
"CN1CCC[C@H]1c1cccnc1 [nicotine, 3-[(2S)-1-methylpyrrolidin-2-yl]pyridine]",adverse experiences (AE),PD patients with LIDS,no unexpected AEs occur
same,"improvement on patient- and physician-rated outcome measures (UPDRS, UDysRS, LF-ADL, CGI-C, PGI-C) compared to pbo",PD patients with LIDS; majority of outcome measures,trend towards statistically significant improvement
